We go through 13 compounds from ChEMBL document CHEMBL5370537, “Aporphines: A privileged scaffold in CNS drug discovery” (Eur J Med Chem, 2023).

In experiment [1] the target is T1, 5-hydroxytryptamine receptor 2C (Homo sapiens, UniProt P28335).
T1 sequence (P28335 whole entry): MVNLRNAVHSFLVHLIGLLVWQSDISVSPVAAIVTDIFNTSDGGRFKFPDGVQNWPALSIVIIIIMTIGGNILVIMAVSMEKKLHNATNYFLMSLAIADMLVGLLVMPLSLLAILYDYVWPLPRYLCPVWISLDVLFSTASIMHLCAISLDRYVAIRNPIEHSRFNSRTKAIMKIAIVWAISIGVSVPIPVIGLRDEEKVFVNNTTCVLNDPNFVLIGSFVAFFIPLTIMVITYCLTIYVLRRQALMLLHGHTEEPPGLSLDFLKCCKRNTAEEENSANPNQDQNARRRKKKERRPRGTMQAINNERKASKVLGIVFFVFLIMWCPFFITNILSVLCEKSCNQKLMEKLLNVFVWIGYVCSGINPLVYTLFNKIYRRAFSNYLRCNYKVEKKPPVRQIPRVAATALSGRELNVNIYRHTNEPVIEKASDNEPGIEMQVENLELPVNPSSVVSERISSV
In words: Agonist activity at 5-HT2C (unknown origin). The class given is functional.

Experiment [2] has as its target T2, 5-hydroxytryptamine receptor 2C (Homo sapiens) (UniProt P28335).
T2 sequence (whole entry): T1 sequence (P28335 whole entry)
In words: Agonist activity at 5-HT2C (unknown origin) relative to control. In kind it is functional. The following applies: filed as agonist.

In experiment [3] the test system is BV-2. Kind of experiment: Inhibition of NO production in LPS-induced mouse BV-2 cells incubated for 24 hrs by Griess reagent based microplate reader analysis. The class given is functional, cell-based. The following applies: BV-2, 24 h.
In experiment [4] the target is D(1A) dopamine receptor (Homo sapiens, UniProt P21728). In words: Antagonist activity at D1R (unknown origin) transfected in HEK293 cells by FLIPR assay.
D(1A) dopamine receptor, sequence (P21728 whole entry): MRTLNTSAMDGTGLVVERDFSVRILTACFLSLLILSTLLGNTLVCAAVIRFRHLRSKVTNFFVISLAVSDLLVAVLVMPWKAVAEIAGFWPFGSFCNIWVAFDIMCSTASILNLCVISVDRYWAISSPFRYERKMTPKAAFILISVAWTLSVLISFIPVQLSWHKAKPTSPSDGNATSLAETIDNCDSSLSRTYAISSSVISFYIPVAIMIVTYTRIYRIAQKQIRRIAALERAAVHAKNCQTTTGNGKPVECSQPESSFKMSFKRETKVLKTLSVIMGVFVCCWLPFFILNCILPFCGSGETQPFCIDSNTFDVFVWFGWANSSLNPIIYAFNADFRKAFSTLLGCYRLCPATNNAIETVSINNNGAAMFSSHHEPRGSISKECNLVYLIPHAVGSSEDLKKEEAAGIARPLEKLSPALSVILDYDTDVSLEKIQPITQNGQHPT
Experiment [5] addresses Acetylcholinesterase (Electrophorus electricus, UniProt O42275). Kind of experiment: Inhibition of Electrophorus electricus AChE using ATCI as substrate pre-incubated for 10 mins followed by substrate addition measured after 5 mins by microplate reader analysis.
Experiment [6] addresses Cholinesterase (Equus caballus, UniProt P81908). Kind of experiment: Inhibition of equine serum BuChE using BTCI as substrate pre-incubated for 10 mins followed by substrate addition measured after 5 mins by microplate reader analysis.
The target of experiment [7] is T1, 5-hydroxytryptamine receptor 2C. Kind of experiment: Partial agonist activity at human 5-HT2C stably transfected in HEK293T cells measured after 18 to 24 hrs by FLIPR assay. The class given is functional, cell-based.
Experiment [8] deals with D(2) dopamine receptor (Homo sapiens, UniProt P14416). In words: Antagonist activity at D2R (unknown origin). The class given is functional.
D(2) dopamine receptor, sequence (P14416 whole entry): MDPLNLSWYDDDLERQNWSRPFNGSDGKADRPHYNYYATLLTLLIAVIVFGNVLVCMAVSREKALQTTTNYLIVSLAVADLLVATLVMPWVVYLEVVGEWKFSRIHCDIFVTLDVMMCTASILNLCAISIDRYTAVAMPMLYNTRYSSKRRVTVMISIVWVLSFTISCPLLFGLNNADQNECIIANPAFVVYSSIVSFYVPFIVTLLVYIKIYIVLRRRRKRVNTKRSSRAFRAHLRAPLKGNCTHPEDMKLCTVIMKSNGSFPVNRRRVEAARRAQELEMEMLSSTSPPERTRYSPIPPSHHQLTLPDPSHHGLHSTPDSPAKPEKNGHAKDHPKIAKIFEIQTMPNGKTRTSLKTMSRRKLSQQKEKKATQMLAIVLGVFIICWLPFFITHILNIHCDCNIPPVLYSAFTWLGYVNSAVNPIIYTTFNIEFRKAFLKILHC
Experiment [9] deals with SH-SY5Y. Kind of experiment: Neuroprotective activity against human SH-SY5Y cells assessed as increase in BDNF level measured after 48 hrs. The class given is functional, cell-based.
For experiment [10], the system named is BV-2. Kind of experiment: Potency index, ratio of minocycline IC50 to test compound IC50 for inhibition of NO production in LPS-induced mouse BV-2 cells incubated for 24 hrs by Griess reagent based microplate reader analysis. The class given is functional. For orientation: Nitrite, measured by Griess reagent, commonly stands in for NO production.

pEC50, pIC50: −log10 of the molar value.

Cholinesterase, sequence (P81908 whole entry): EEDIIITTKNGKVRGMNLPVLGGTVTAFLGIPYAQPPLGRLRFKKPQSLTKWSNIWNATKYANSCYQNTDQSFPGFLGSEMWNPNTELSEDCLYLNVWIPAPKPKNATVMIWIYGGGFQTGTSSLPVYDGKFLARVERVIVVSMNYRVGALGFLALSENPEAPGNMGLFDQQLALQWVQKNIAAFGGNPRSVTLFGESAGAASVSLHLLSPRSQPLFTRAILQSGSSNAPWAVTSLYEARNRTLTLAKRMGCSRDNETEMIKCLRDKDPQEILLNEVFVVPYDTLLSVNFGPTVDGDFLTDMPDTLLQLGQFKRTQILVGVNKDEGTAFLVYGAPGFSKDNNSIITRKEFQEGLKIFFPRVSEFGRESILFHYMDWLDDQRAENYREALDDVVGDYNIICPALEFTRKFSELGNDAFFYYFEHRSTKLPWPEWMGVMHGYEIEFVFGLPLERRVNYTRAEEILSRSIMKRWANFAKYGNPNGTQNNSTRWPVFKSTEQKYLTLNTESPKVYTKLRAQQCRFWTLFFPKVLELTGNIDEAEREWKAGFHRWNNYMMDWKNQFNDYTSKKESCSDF
Acetylcholinesterase, sequence (O42275 whole entry): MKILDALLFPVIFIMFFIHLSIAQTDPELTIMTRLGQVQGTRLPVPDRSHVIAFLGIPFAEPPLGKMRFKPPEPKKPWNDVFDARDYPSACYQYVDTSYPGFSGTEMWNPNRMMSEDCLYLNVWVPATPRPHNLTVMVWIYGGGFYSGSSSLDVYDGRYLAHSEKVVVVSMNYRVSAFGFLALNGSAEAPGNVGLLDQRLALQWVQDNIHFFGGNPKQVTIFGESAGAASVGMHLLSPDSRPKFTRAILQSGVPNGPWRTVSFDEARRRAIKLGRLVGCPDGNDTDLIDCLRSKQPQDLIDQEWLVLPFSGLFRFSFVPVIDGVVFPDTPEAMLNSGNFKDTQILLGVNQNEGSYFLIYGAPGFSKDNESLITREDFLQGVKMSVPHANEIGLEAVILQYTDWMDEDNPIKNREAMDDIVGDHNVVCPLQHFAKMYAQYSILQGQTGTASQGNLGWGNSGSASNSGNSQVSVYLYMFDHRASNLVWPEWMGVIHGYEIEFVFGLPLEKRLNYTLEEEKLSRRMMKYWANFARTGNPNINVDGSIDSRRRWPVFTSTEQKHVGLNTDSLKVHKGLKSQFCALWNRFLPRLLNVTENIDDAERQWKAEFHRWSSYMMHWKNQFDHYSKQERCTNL

Usually pEC50 stands for the EC50 on a negative log10 scale, so that one unit is a factor of ten. Read a high pEC50 as a small EC50. What is called Emax is the size of the effect at its maximum, as opposed to the concentration needed. On to `Oc1cc2c3c(c1Cl)-c1ccccc1C[C@@H]3NCC2`, for which, in experiment [1], the pEC50 is 8.10. In experiment [2], the Emax turned out to be 89.8%.
As a reminder, the pIC50 is −log10 of the IC50, conventionally taken in molar units. In experiment [3], `CN(C)c1ccc(O)c2c1C[C@H]1C[C@H]3[C@H](N(C)C)C(O)=C(C(N)=O)C(=O)[C@@]3(O)C(O)=C1C2=O` [MINOCYCLINE] gave a pIC50 of 4.81.
Turning to `COc1c(O)cc2c3c1-c1ccccc1C[C@H]3NCC2` [(-)-ASIMILOBINE], the pIC50 is 5.14 in [4], 3.85 in experiment [5] and 5.00 in experiment [6]. The same compound had a pEC50 in experiment [7] of 6.19.
Regarding `COc1cccc2c1cc1c3c(cc4c(c32)OCO4)CCN1C`, in experiment [3], the pIC50 is 4.52.
Regarding `COc1cc2c3c(c1OC)-c1cc(O)ccc1C[C@H]3NCC2`, in experiment [8], the pIC50 is 5.28.
Consider `CN1CCc2cc3c(c4c2[C@H]1[C@H](O)c1ccccc1-4)OCO3`, for which the pIC50 in experiment [5] is 4.75; in experiment [6], 5.13.
For the compound `COc1c2c3c(c4c1OCO4)-c1ccccc1C[C@H]3N(C)CC2`, the pIC50 was 4.40 in experiment [5] and 3.98 in experiment [6].
In the case of `CN1CCc2cc3c(c4c2c1cc1ccccc14)OCO3` [DEHYDROROEMERINE], the results for the pIC50 in [5], in [6] and in [3] were 5.92, 5.48 and 5.89, respectively.
`COc1ccc2c(c1)cc1c3c(cc4c(c32)OCO4)CCN1C`: the pIC50 in experiment [3] was 4.50.
Consider `COc1ccc2c(c1OC)[C@@H](O)[C@@H]1c3c(cc4c(c3-2)OCO4)CCN1C`, for which the negative logarithm of the IC50 (pIC50) in experiment [5] is 5.37; in experiment [6], 4.65.
Take `COc1ccc2c(c1OC)C[C@@H]1c3c(cc4c(c3-2)OCO4)CCN1C`: the pIC50 was 4.98 in experiment [5], 4.76 in [6], 5.28 in experiment [3] and 5.28 in experiment [9]. For the same compound, the “Ratio IC50” value in experiment [10] came to 3.
`COc1cccc2c1C[C@@H]1c3c(cc4c(c3-2)OCO4)CCN1C` [STEPHANINE]: the pIC50 in [8] was 6.07; in experiment [5], 4.95; in [6], 5.55; in [3], 4.69. Moreover, the “Ratio IC50” value in [10] is on record as approximately 4.
In the case of `Oc1cc2c3c(c1Cl)-c1ccccc1C[C@H]3NCC2`, the negative-log EC50 (pEC50) in [1] was 6.52. In experiment [2], the maximum response (Emax) was determined as 41.6%.
